The values below come from patent US20110306597A1, “Nicotinamide Derivatives” (priority 2008, published 2011).

The target in the assay is human recombinant H-PGDS (Homo sapiens, UniProt O60760). In words: Fluorescence Intensity h-PGDS TBA Enzyme Assay. Format: biochemical. To be noted: 1:175,000 human recombinant H-PGDS, highest inhibitor concentration typically 1 μM. In a few lines: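 Readout is PGH2 depletion: after a 42 s reaction with 5.0 μM PGH2 and 2.5 mM glutathione (pH 8.0 Tris, 10 min inhibitor preincubation), Fe(II) converts leftover PGH2 to MDA, which forms a fluorescent TBA complex. IC50s come from 11-point, 3-fold duplicate curves, 4-parameter fit.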

Some results are limits rather than exact numbers.

Sequence of human recombinant H-PGDS (O60760 whole entry): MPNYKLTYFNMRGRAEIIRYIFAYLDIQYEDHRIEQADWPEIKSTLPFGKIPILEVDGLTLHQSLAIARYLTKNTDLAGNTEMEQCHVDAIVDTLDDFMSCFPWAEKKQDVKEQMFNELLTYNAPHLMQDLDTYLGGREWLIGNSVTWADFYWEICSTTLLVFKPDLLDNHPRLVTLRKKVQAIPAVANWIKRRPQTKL

In the case of `O=C(NCc1ccco1)c1ccc(-c2cccc(F)c2)nc1` [Example 428, 6-(3-Fluorophenyl)-N-(2-furylmethyl)nicotinamide], the IC50 (in general, the concentration needed to halve the response being measured) amounted to 40.9 nM.
As for `Cc1cccc(-c2ccc(C(=O)NC(C)c3ccncn3)cn2)c1` (stereo not drawn) [Example 319, 6-(3-Methylphenyl)-N-(1-pyrimidin-4-ylethyl)nicotinamide], the IC50 came to 140 nM.
Next, `CNS(=O)(=O)c1ccc(CNC(=O)c2ccc(-c3cccc(C)c3)nc2)cc1` [Example 218, N-{4-[(Methylamino)sulfonyl]benzyl}-6-(3-methylphenyl)nicotinamide]: 27.6 nM; `CN(C)CCNC(=O)c1ccc(-c2ccc(F)cc2)nc1` [Example 467, N-[2-(Dimethylamino)ethyl]-6-(4-fluorophenyl)nicotinamide]: no less than 1000 nM.
As to `CN(C)CC(C)(C)CNC(=O)c1ccc(-c2ccccc2)nc1` [Example 352, N-[3-(Dimethylamino)-2,2-dimethylpropyl]-6-phenylnicotinamide], the IC50 was 458 nM.
For the compound `O=C(NCCCc1ccccn1)c1ccc(-c2cccc(F)c2)nc1` [Example 118, 6-(3-Fluorophenyl)-N-(3-pyridin-2-ylpropyl)nicotinamide], the IC50 came out at 5.3 nM.
As to `CCOC(=O)CC(NC(=O)c1ccc(-c2cccc(F)c2)nc1)c1ccccc1Cl` (stereo not drawn) [Example 411, Ethyl 3-(2-chlorophenyl)-3-({[6-(3-fluorophenyl)pyridin-3-yl]carbonyl}amino)propanoate], the IC50 was found to be 127 nM.
For the compound `O=C(NCC(c1ccccc1Cl)N1CCOCC1)c1ccc(-c2cccc(F)c2)nc1` (stereo not drawn) [Example 445, N-[2-(2-Chlorophenyl)-2-morpholin-4-ylethyl]-6-(3-fluorophenyl)nicotinamide], the IC50 turned out to be 589 nM.
In the case of `COc1cccc(-c2ccc(C(=O)NC3CCOC3=O)cn2)c1` (stereo not drawn) [Example 293, 6-(3-Methoxyphenyl)-N-(2-oxotetrahydrofuran-3-yl)nicotinamide], the IC50 was determined as 508 nM.
As to `COC(=O)CNC(=O)c1ccc(-c2cccc(F)c2)nc1` [Example 173, Methyl N-{[6-(3-fluorophenyl)pyridin-3-yl]carbonyl}glycinate], the IC50 stood at 82 nM.
Regarding `CN(C)C(=O)N1[C@@H]2CC[C@H]1C[C@H](NC(=O)c1ccc(-c3cccc(F)c3)nc1)C2` [Example 595, (3-exo)-3-({[6-(3-Fluorophenyl)-pyridin-3-yl]carbonyl}amino)-N,N-dimethyl-8-azabicyclo[3.2.1]octane-8-carboxamide], the half-inhibitory concentration (IC50) amounted to 3 nM.
Next, `COCCN1CCC(CNC(=O)c2ccc(-c3cccc(F)c3)nc2)CC1` [Example 19, 6-(3-Fluorophenyl)-N-{[1-(2-methoxyethyl)piperidin-4-yl]methyl}nicotinamide]: 117 nM; `O=C(NCC(O)c1ccccc1F)c1cnc(-c2cccc(F)c2)c(Cl)c1` (stereo not drawn) [Example 549, 5-Chloro-6-(3-fluorophenyl)-N-[2-(2-fluorophenyl)-2-hydroxyethyl]nicotinamide]: 37.9 nM; `COC(=O)CNC(=O)c1ccc(-c2ccc(F)cc2)nc1` [Example 500, Methyl N-{[6-(4-fluorophenyl)pyridin-3-yl]carbonyl}glycinate]: no less than 1000 nM.
Regarding `CC(NC(=O)c1ccc(-c2cccc(F)c2)nc1)c1ccccc1` (stereo not drawn) [Example 423, 6-(3-Fluorophenyl)-N-(1-phenylethyl)nicotinamide], the IC50 came to 8.76 nM.
Turning to `CN(C)[C@@H]1COC[C@H]1NC(=O)c1ccc(-c2cccc(F)c2)nc1` [Example 68, N-[(3S,4S)-4-(Dimethylamino)tetrahydro-furan-3-yl]-6-(3-fluorophenyl)nicotinamide], the IC50 came out at 75.8 nM.
Turning to `COc1ccc(C(N)CC(=O)NC(=O)c2ccc(-c3ccc(F)cc3)nc2)cc1OC` (stereo not drawn) [Example 466, N-[3-Amino-3-(3,4-dimethoxyphenyl)propanoyl]-6-(4-fluorophenyl)nicotinamide], the IC50 was no less than 1000 nM.
With `CCOC(=O)CCCNC(=O)c1ccc(-c2ccc(F)cc2)nc1` [Example 330, Ethyl 4-({[6-(4-fluorophenyl)pyridin-3-yl]carbonyl}amino)butanoate], the IC50 turned out to be 507 nM.
The result for `O=C(NCc1ccc(Br)cc1)c1ccc(-c2cccc(F)c2)nc1` [Example 408, N-(4-Bromobenzyl)-6-(3-fluorophenyl)nicotinamide] reads 103 nM; that for `O=C(NCCN1CCCC1)c1ccc(-c2cccc(F)c2)nc1` [Example 422, 6-(3-Fluorophenyl)-N-(2-pyrrolidin-1-ylethyl)nicotinamide], 159 nM.
In the case of `O=C(NCCC1CCC(=O)N1CCN1CCCC1)c1ccc(-c2cccc(F)c2)nc1` (stereo not drawn) [Example 75, 6-(3-Fluorophenyl)-N-{2-[5-oxo-1-(2-pyrrolidin-1-ylethyl)pyrrolidin-2-yl]ethyl}nicotinamide], the IC50 was found to be 48 nM.
Consider `Cc1ccc2c(c1)C(NC(=O)c1ccc(-c3cc(F)cc(F)c3)nc1)CC(C)(C)O2` (stereo not drawn) [Example 536, 6-(3,5-Difluorophenyl)-N-(2,2,6-trimethyl-3,4-dihydro-2H-chromen-4-yl)nicotinamide], for which the IC50 was 53.5 nM.
In the case of “6-(3-Fluorophenyl)-N-{[1- (2-methoxyethyl)piperidin- 3-yl]methyl}nicotinamide [Example 438]”, the half-inhibitory concentration (IC50) is 374 nM.
`CC(NC(=O)c1ccc(-c2ccc(F)cc2)nc1)c1ccccc1` (stereo not drawn) [Example 265, 6-(4-Fluorophenyl)-N-(1-phenylethyl)nicotinamide]: the IC50 amounted to 152 nM.
Next, `O=C(NCCN1CCCCC1)c1ccc(-c2cccc(F)c2)nc1` [Example 195, 6-(3-Fluorophenyl)-N-(2-piperidin-1-ylethyl)nicotinamide]: 12.1 nM; `COC(=O)CC(NC(=O)c1ccc(-c2cccc(F)c2)nc1)c1cccnc1` (stereo not drawn) [Example 171, Methyl 3-({[6-(3-fluorophenyl)pyridin-3-yl]carbonyl}amino)-3-pyridin-3-ylpropanoate]: 52.7 nM; `COc1cc(F)cc(-c2ccc(C(=O)NCC3CCN(C(C)=O)CC3)cn2)c1` [Example 558, N-[(1-Acetylpiperidin-4-yl)methyl]-6-(3-fluoro-5-methoxyphenyl)nicotinamide]: 119 nM.
The result for `COc1cccc(-c2ccc(C(=O)NCCc3cccs3)cn2)c1` [Example 302, 6-(3-Methoxyphenyl)-N-[2-(2-thienyl)ethyl]nicotinamide] reads 177 nM.
Take `COc1cccc(-c2ccc(C(=O)NCc3ccco3)cn2)c1` [Example 288, N-(2-Furylmethyl)-6-(3-methoxyphenyl)nicotinamide]: the IC50 was found to be 333 nM.
Regarding `COc1ccc(C(CNC(=O)c2ccc(-c3ccccc3)nc2)N2CCOCC2)cc1` (stereo not drawn) [Example 400, N-[2-(4-Methoxyphenyl)-2-morpholin-4-ylethyl]-6-phenylnicotinamide], the IC50 is 86.1 nM.
Regarding `CC(O)CNC(=O)c1ccc(-c2cccc(F)c2)nc1` (stereo not drawn) [Example 198, 6-(3-Fluorophenyl)-N-(2-hydroxypropyl)nicotinamide], the IC50 turned out to be 38.7 nM.
With `O=C(NCc1ccccc1)c1ccc(-c2ccccc2)nc1` [Example 347, N-Benzyl-6-phenylnicotinamide], the IC50 came to 4.3 nM.
Turning to `CN(C)C(=O)CNC(=O)c1ccc(-c2cccc(F)c2)nc1` [Example 161, N-[2-(dimethylamino)-2-oxoethyl]-6-(3-fluorophenyl)nicotinamide], the IC50 is 88 nM.
